# Conditions: 50 ppm of sulfuric acid added to pressure-sterilized physiological salt solution (salt concentration 0.9 wt %)
structure (smiles),measurement,value
O=S(=O)(O)O [sulfuric acid],pH of the liquid,3.2

# From patent US7090780B2, “Bactericide for use in water treatment, method for water treatment and apparatus for water treatment” (Toray Industries, Inc., priority 2001, dated 2006)
